In brackets after ≈: the same amount, converted by molar mass. Like-named read-outs stand apart in the source and are kept apart here.
Assays:
[1] = system: Staphylococcus aureus 108/83; test: MIC, micro-broth dilution test according to DIN 58 940 (Part 8); format: cell-based; details: for MIC: Staphylococcus aureus, read-out: MIC, Staphylococcus aureus 108/83
Protocol: (§1) The minimum inhibiting concentration (MIC) of the compounds was tested, in a micro-broth dilution test according to DIN 58 940 (Part 8), against the following bacterial strains: Staphylococcus aureus, strains 8325-4 (a sensitive Staphylococcus aureus strain which is representative of the species), NCTC 6571 (a sensitive international control strain), 108/83 (an "old" MRSA without quinolone-resistance), 134/94 (a "new" MRSA, with quinolone-resistance), Staphylococcus epidermidis CCM 2124 (a sensitive control strain), Enterococcus faecium 70/90 (a vancomycin-resistant strain) and 64/3 (a sensitive strain). The known substances vancomycin, teicoplanin and ciprofloxacin were used for comparison in the tests, even though they are structurally different.

[2] = system: Staphylococcus aureus 134/94; test: as above; format: cell-based; details: for MIC: Staphylococcus aureus, read-out: MIC, Staphylococcus aureus 134/94
Protocol: as §1

[3] = system: Staphylococcus aureus 8325-4; test: as above; format: cell-based
Protocol: as §1

[4] = background section; cited from earlier work
[5] = system: Enterococcus faecium 70/90; test: MIC, micro-broth dilution test according to DIN 58 940 (Part 8); format: cell-based; details: for MIC: Enterococcus faecium
Protocol: as §1

[6] = system: Staphylococcus aureus NCTC 6571; test: as above; format: cell-based; details: NCTC6571, sensitive international control strain
Protocol: as §1

[7] = system: Staphylococcus epidermidis CCM 2124; test: as above; format: cell-based; details: for MIC: Staphylococcus epidermidis
Protocol: as §1

[8] = system: Enterococcus faecium 64/3; test: as above; format: cell-based; details: for MIC: Enterococcus faecium
Protocol: as §1, with “strain).” for “strain). The known substances vancomycin, teicoplanin and ciprofloxacin were used for comparison in the tests, even though they are structurally different.”

[9] = "old" MRSA, without quinolone-resistance
[10] = "new" MRSA, with quinolone-resistance
[11] = 83254, sensitive Staphylococcus aureus strain, representative of the species, read-out: MIC, Staphylococcus aureus 8325-4
[12] = 70/90, vancomycin-resistant strain, read-out: MIC, Enterococcus faecium 70/90
[13] = CCM2124, sensitive control strain, read-out: MIC, Staphylococcus epidermidis CCM 2124
[14] = 64/3, sensitive strain, read-out: MIC, Enterococcus faecium 64/3
[15] = Staphylococcus aureus, 83254, read-out: MIC, Staphylococcus aureus 8325-4
[16] = CCM2124, read-out: MIC, Staphylococcus epidermidis CCM 2124

Q: For `CCC(C(=O)O)n1ncc2cc3c(c(O)c2c1=O)-c1c(O)c2c(c(OC)c1CC3)C(=O)c1c(cc(O)c(C)c1O)C2=O` (racemic) [Substance 4], which MIC [1, 9] is on record?
A: The MIC was 32 µg/mL (≈ 55.9 µM).

Q: And the MIC [2, 10]?
A: The MIC was 16 µg/mL (≈ 27.9 µM).

Q: And the MIC [3, 11]?
A: The MIC was 63 µg/mL (≈ 110 µM).

Q: For `COc1c2c(c(O)c3c1C(=O)c1c(cc(O)c(C)c1O)C3=O)-c1c(cc3c(c1O)C(=O)OC3O)CC2` (stereo not shown) [Madurahydroxylactone, 3,9,11,14,15-pentahydroxy-10-methyl-7-methoxy-1,8,13-trioxo-1,3,5,6,8,13-hexahydro-naphthaceno-[1,2-f]-benzoisofurane], which biological efficacy [4] is on record?
A: Its biological efficacy is “unsatisfactory biological efficacy”.

Q: For `COc1c2c(c(O)c3c1C(=O)c1c(cc(O)c(C)c1O)C3=O)-c1c(cc3cnn(-c4ccc(C(=O)O)cc4)c(=O)c3c1O)CC2` [Substance 1], which MIC [5, 12] is on record?
A: Its MIC is 500 µg/mL (≈ 824 µM).

Q: What about the MIC [1, 9] of the same compound?
A: The MIC was 250 µg/mL (≈ 412 µM).

Q: And the MIC [2, 10]?
A: Its MIC is 500 µg/mL (≈ 824 µM).

Q: What about the MIC [3, 11] of the same compound?
A: Its MIC is 500 µg/mL (≈ 824 µM).

Q: What about the MIC [6] of the same compound?
A: Its MIC is less than 125 µg/mL.

Q: And the MIC [7, 13]?
A: The MIC was less than 125 µg/mL.

Q: And the MIC [8, 14]?
A: Its MIC is 500 µg/mL (≈ 824 µM).

Q: For `COc1c2c(c(O)c3c1C(=O)c1c(cc(O)c(C)c1O)C3=O)-c1c(cc3cnn(CC(=O)O)c(=O)c3c1O)CC2` [Substance 3, 10,12, 15,16-tetrahydroxy-8-methoxy-2-carboxynmethyl-11-methyl-1,9,14-trioxo-1,2,6,7,9,14-hexahydro-naphthaceno-[1,2-g]-phthalazine], which MIC [5, 12] is on record?
A: The MIC was 2000 µg/mL (≈ 3670 µM).

Q: And the MIC [1, 9]?
A: The MIC was 63 µg/mL (≈ 116 µM).

Q: What about the MIC [2, 10] of the same compound?
A: Its MIC is 250 µg/mL (≈ 459 µM).

Q: What about the MIC [3, 11] of the same compound?
A: Its MIC is 63 µg/mL (≈ 116 µM).

Q: What about the MIC [6] of the same compound?
A: The MIC was less than 125 µg/mL.

Q: And the MIC [7, 13]?
A: Its MIC is less than 125 µg/mL.

Q: And the MIC [8, 14]?
A: The MIC was 500 µg/mL (≈ 918 µM).

Q: With `O=C(O)c1cn(C2CC2)c2cc(N3CCNCC3)c(F)cc2c1=O` [ciprofloxacin] as the compound, how does the MIC ([5]; 70/90, read-out: MIC, Enterococcus faecium 70/90) read?
A: Its MIC is 1000 µg/mL (≈ 3020 µM).

Q: And the MIC ([1]; MRSA)?
A: Its MIC is 250 µg/mL (≈ 754 µM).

Q: What about the MIC ([2]; MRSA) of the same compound?
A: Its MIC is 16000 µg/mL (≈ 48300 µM).

Q: What about the MIC [3, 15] of the same compound?
A: Its MIC is 250 µg/mL (≈ 754 µM).

Q: And the MIC [7, 16]?
A: The MIC was 250 µg/mL (≈ 754 µM).

Q: Which MIC ([1]; MRSA) does the source give for `CN[C@H](CC(C)C)C(=O)N[C@H]1C(=O)N[C@@H](CC(N)=O)C(=O)N[C@H]2C(=O)N[C@H]3C(=O)N[C@H](C(=O)N[C@H](C(=O)O)c4cc(O)cc(O)c4-c4cc3ccc4O)[C@H](O)c3ccc(c(Cl)c3)Oc3cc2cc(c3O[C@@H]2O[C@H](CO)[C@@H](O)[C@H](O)[C@H]2O[C@H]2C[C@](C)(N)[C@H](O)[C@H](C)O2)Oc2ccc(cc2Cl)[C@H]1O` [vancomycin] here?
A: Its MIC is 500 µg/mL (≈ 345 µM).

Q: And the MIC ([2]; MRSA)?
A: Its MIC is 500 µg/mL (≈ 345 µM).

Q: And the MIC [3, 15]?
A: Its MIC is 500 µg/mL (≈ 345 µM).

Q: What about the MIC [7, 16] of the same compound?
A: Its MIC is 500 µg/mL (≈ 345 µM).

Q: What about the MIC ([8]; 64/3, read-out: MIC, Enterococcus faecium 64/3) of the same compound?
A: Its MIC is less than 250 µg/mL.

Q: What does the source list for teicoplanin?
A: MIC, Enterococcus faecium 70/90 ([5]; vancomycin-resistant strain): 256000 µg/mL; MIC, Staphylococcus aureus 108/83 [1, 9]: 500 µg/mL; MIC, Staphylococcus aureus 134/94 [2, 10]: 500 µg/mL; MIC, Staphylococcus aureus 8325-4 ([3]; sensitive Staphylococcus aureus strain, representative of the species): 500 µg/mL; MIC, Staphylococcus epidermidis CCM 2124 ([7]; sensitive control strain): 500 µg/mL; MIC, Enterococcus faecium 64/3 ([8]; sensitive strain): < 250 µg/mL

— patent US6124290A, “Polycyclic phthalazine compounds and their use” (Gruenenthal GmbH, priority 1996, dated 2000)
